The values below come from ChEMBL document CHEMBL3988442, “University of Dundee, Small-Polar-MMV Screening Library” (2021).

A short description of this assay: In vitro enzyme assay to detect hydrolysis of chlorophenol red-beta-D-[…] directly proportional to the number of Toxoplasma stably expressing beta-galactosidase. The class given is functional, organism-based, Toxoplasma gondii. As to conditions: Toxoplasma gondii.

The structures appear in SMILES notation.

`COC(=O)c1cnc(F)cn1`: the IC50 (as a rule, the point on the concentration scale where inhibition reaches its midpoint) is greater than 50.1 µM. In turn, `CCNC1CCS(=O)(=O)C1` (configuration not stated) showed a half-maximal inhibitory concentration (IC50) greater than 50.1 µM. As for `NCc1cccc(CN2CCCC2)c1`, the figure is greater than 50.1 µM; as for `CC1CN(C)CCC1=O` (configuration not stated), greater than 50.1 µM; as for `Cc1ccc(F)cc1C(=O)NC1CCCNC1` (configuration not stated), greater than 50.1 µM.

`Cc1ccc(NC(=O)CCCNC(=O)C2CC2)cc1`: the IC50 is greater than 50.1 µM. As for `O=C1NCCN(C(=O)c2ccc(Br)o2)C1c1cccs1` (configuration not stated), the figure is greater than 50.1 µM. `CCN(CC)Cc1nnnn1-c1ccccc1` showed an IC50 greater than 50.1 µM. As for `Cn1nnnc1SCCNC(=O)c1cc(Cl)ccc1F`, the figure is greater than 50.1 µM. `CCc1ccc(CN(CCO)Cc2nccn2C)nc1` showed a half-inhibitory concentration (IC50) greater than 50.1 µM. With `CCN1CCc2nc(NC(=O)c3ccncc3)sc2C1`, the IC50 was greater than 50.1 µM.

The compound `CC(C)Cn1cc(NC(=O)N2CCC(O)C2)cn1` (configuration not stated) had an IC50 greater than 50.1 µM. As for `C1CN[C@@H]2CNC[C@@H]2C1`, the figure is greater than 50.1 µM. Under `CCc1cnc(CNC)s1` stands greater than 50.1 µM. In turn, `COc1ncccc1C(=O)N1CCc2ccccc2C1` had an IC50 greater than 50.1 µM.

`NCCc1cc(C(F)(F)F)ccn1` had a 50% inhibitory concentration (IC50) greater than 50.1 µM. As for `Cc1cncc(C(=O)N2CCCC2C(C)(C)O)c1` (configuration not stated), the figure is greater than 50.1 µM; as for `CNCc1ccc(N)nc1`, greater than 50.1 µM. `CC(=O)c1cccc(OCC(=O)Nc2cc(C)on2)c1` gave a half-inhibitory concentration (IC50) greater than 50.1 µM. Under `CCC(=O)c1cccc(OC)n1` stands greater than 50.1 µM.

`N#Cc1ccccc1NC(=O)CCN1CCCC(O)C1` (configuration not stated) gave a 50% inhibitory concentration (IC50) greater than 50.1 µM. As for `CC(=O)NCCCS(=O)(=O)c1ncccc1Cl`, the figure is greater than 50.1 µM. Compound `O=C(NC1CCCC1)c1cnccn1` had an IC50 greater than 50.1 µM. Compound `COCCN(CCOC)CC(=O)N(C)C` had an IC50 greater than 50.1 µM. For the compound `NCCC(=O)Nc1ccccc1`, the IC50 was greater than 50.1 µM.

Compound `CN1CCC(NC(=O)c2cc3ccccc3s2)C1=O` (configuration not stated) showed an IC50 greater than 50.1 µM. Under `NC1CN(S(=O)(=O)c2ccc3c(c2)OCCO3)C1` stands greater than 50.1 µM; under `COCCC1(CN2CCC(C(N)=O)C2)CCC1` (configuration not stated), greater than 50.1 µM; under `CC(C)CSc1nnc(CN2CCCC2=O)o1`, greater than 50.1 µM. As for `CC1CCN(CCNC(=O)Nc2ncnn2C)CC1`, the figure is greater than 50.1 µM; as for `CC(C)COC1CCN(S(=O)(=O)N2CCCC2)CC1`, greater than 50.1 µM; as for `CC(C)C(O)CCNS(=O)(=O)c1ccccc1` (configuration not stated), greater than 50.1 µM. As for `c1ccc(CNc2ccncc2)nc1`, the figure is greater than 50.1 µM. Turning to `CC(C)CC1NCCNC1=O` (configuration not stated), the IC50 is greater than 50.1 µM.

`Cc1ccc(Cl)cc1NC(=O)CN1CCNC(=O)C1` gave an IC50 greater than 50.1 µM. As for `c1cc(SCCOCC2CCCO2)ccn1` (configuration not stated), the figure is greater than 50.1 µM; as for `CC(=O)c1ccc(OCC(O)Cn2ccnc2)cc1` (configuration not stated), greater than 50.1 µM. Under `CC(C)n1ccc(CN2C(=O)CC(C)(C)C2=O)n1` stands greater than 50.1 µM; under `O=C(OCCOc1cccnc1)C1CC1`, greater than 50.1 µM.

In turn, `O=C1c2ccc(F)cc2C(=O)N1Cc1nnsc1Cl` showed an IC50 greater than 50.1 µM. As for `Cn1cc(CN)c(C(F)(F)F)n1`, the figure is greater than 50.1 µM. As to `CC(C)CNC(=O)CSc1n[nH]c(-c2ccccn2)n1`, the IC50 is greater than 50.1 µM. In turn, `NC1CCCCNC1=O` (configuration not stated) showed an IC50 greater than 50.1 µM. Under `N#Cc1ccnc(SCC(=O)Nc2ccncc2)c1` stands greater than 50.1 µM. Under `CNc1cc(-c2cccc(OC)c2)[nH]n1` stands greater than 50.1 µM. As for `Cc1nnc(SCCO)s1`, the figure is greater than 50.1 µM.

In turn, `OC1(Cc2ccccc2F)CCNC1` (configuration not stated) showed an IC50 greater than 50.1 µM. As for `Cc1cncc(C(N)=O)c1`, the IC50 was greater than 50.1 µM. On to `COc1ccc(CC#N)cc1S(C)(=O)=O`, for which the IC50 is greater than 50.1 µM. For the compound `CCCNC(=O)CCn1nc(C)cc1C`, the IC50 was greater than 50.1 µM. Take `NC1CCN(C(=O)C2(c3cccc(F)c3)CC2)CC1`: the IC50 was greater than 50.1 µM. As for `Nc1c[nH]nc1-c1ccccn1`, the figure is greater than 50.1 µM. Regarding `CCCC(N)C(=O)N(C)Cc1cccc(N(C)C)c1` (configuration not stated), the IC50 is greater than 50.1 µM.

In turn, `COc1ccc(CC(=O)NCC2CCCNC2)cc1F` (configuration not stated) gave an IC50 greater than 50.1 µM. On to `Cc1ocnc1CNC(=O)c1ccon1`, for which the IC50 is greater than 50.1 µM. Under `COCc1ccccc1C(=O)N1CCCC(O)C1` (configuration not stated) stands greater than 50.1 µM. As for `CC(=O)Nc1ccc(S(=O)(=O)N2CCC(N)CC2)cc1`, the figure is greater than 50.1 µM; as for `CCCC(=O)N1CCN(C(=O)NCC)CC1`, greater than 50.1 µM; as for `Cc1nc([C@H]2CCCN2)cs1`, greater than 50.1 µM. `CSCc1ccc(C(=O)N(C)Cc2cnccn2)o1` had a half-maximal inhibitory concentration (IC50) greater than 50.1 µM. Under `Cc1nnc(SCCNC(=O)CC2C=CS(=O)(=O)C2)s1` (configuration not stated) stands greater than 50.1 µM. Under `NC1CCN(Cc2ccccc2)C1=O` (configuration not stated) stands greater than 50.1 µM. Under `COc1cccc(CNCC2CCOC2)c1` (configuration not stated) stands greater than 50.1 µM. For the compound `OC[C@@H]1CCCN1Cc1ccc(F)c2cccnc12`, the IC50 was 3.76 µM. That is a single-digit micromolar value. `N#Cc1ccc(-n2nccc2N)cc1` showed an IC50 of 13.6 µM. Under `CCOCC(C)OC(=O)c1ccnn1C` (configuration not stated) stands greater than 50.1 µM; under `CCS(=O)(=O)N(CCc1cccs1)CC(=O)NC`, greater than 50.1 µM; under `CN(C)c1cc(CNC(=O)c2nccnc2N)ccn1`, greater than 50.1 µM. For the compound `CN(Cc1cccc(C#N)c1)Cc1ccnc(N)c1`, the IC50 is greater than 50.1 µM. Under `CN(C)C(=O)CNC(CO)c1ccc(Cl)c(F)c1` (configuration not stated) stands greater than 50.1 µM; under `NCc1ccnc(N2CCCC2)n1`, greater than 50.1 µM. Take `O=C(c1cccnc1)c1ncc[nH]1`: the IC50 is greater than 50.1 µM. As for `CCc1ccccc1NC(=O)C1=NN(C)C(=O)CC1`, the figure is greater than 50.1 µM; as for `CC(C)(CO)NCC(O)c1cccc(F)c1` (configuration not stated), greater than 50.1 µM.

`CSCC(CCO)NC(=O)c1cc(F)ccc1O` (configuration not stated) showed an IC50 greater than 50.1 µM. As for `NC1CCN(CC(F)F)CC1`, the figure is greater than 50.1 µM. As for `Cc1cc(CN)nc(N(C)C)n1`, the figure is greater than 50.1 µM. In the case of `N#CCCNC(=O)CN1CCCC1`, the IC50 is greater than 50.1 µM. On to `Cc1cc(C(=O)Nc2cccc(C[S+](C)[O-])c2)on1` (configuration not stated), for which the IC50 was greater than 50.1 µM.

`O=C(CC(F)(F)F)NC1CCN(CC2CC2)C1` (configuration not stated) had an IC50 greater than 50.1 µM. As for `CSC(C)C(=O)N1CCCN(c2cccnn2)CC1` (configuration not stated), the IC50 is greater than 50.1 µM. For the compound `CC(C)(C(=O)N1CCC(N)CC1)c1cccc(F)c1`, the IC50 was greater than 50.1 µM.

Compound `COc1ccc(C)cc1CC(=O)N1CCN(C)CC1` gave an IC50 greater than 50.1 µM. With `Cn1cccc1C(=O)OCCCN1CCOCC1`, the IC50 is greater than 50.1 µM. Under `Cc1ccnc(NC(=O)N(C)Cc2ccncc2)c1` stands greater than 50.1 µM; under `N#Cc1ccc(C2NC(=O)c3cccnc3N2)cc1` (configuration not stated), greater than 50.1 µM; under `CSc1ccccc1NCC(=O)NC1CC1`, greater than 50.1 µM. Under `CC(C)CCC(=O)N1CCC(C)(CO)C1` (configuration not stated) stands greater than 50.1 µM; under `COC(=O)c1cnc2[nH]nc(C)c2c1`, greater than 50.1 µM.

As for `CN(C)[C@H]1CCCCN(C(=O)Cn2cc(Cl)cn2)C1`, the IC50 was greater than 50.1 µM.

For the compound `Cn1ccc2ccc(NS(=O)(=O)C3CC3)cc2c1=O`, the IC50 was greater than 50.1 µM. The compound `CC(C)(CO)NCC(O)c1cccc(Cl)c1` (configuration not stated) gave an IC50 greater than 50.1 µM. As to `CC(=O)NCc1cccc(OCc2ccccn2)c1`, the half-inhibitory concentration (IC50) is greater than 50.1 µM. Under `CNC(=O)NCc1cccnc1OC1CCCC1` stands greater than 50.1 µM.

`Cc1cc(C(=O)Nc2ccc3c(c2)CC(=O)N3)c(C)o1` had an IC50 greater than 50.1 µM.

As to `NCCc1cc(-c2ccncc2)[nH]n1`, the IC50 is greater than 50.1 µM.

Compound `NC1CCN(C(=O)Nc2ccccc2)C1` (configuration not stated) showed an IC50 greater than 50.1 µM. In the case of `COCCNC(=O)Nc1cc(Cl)ccc1OC`, the IC50 was greater than 50.1 µM. Under `Cc1cc(-c2nc(C3CCOC3)no2)n(C)n1` (configuration not stated) stands greater than 50.1 µM; under `CNC(=O)NC(=O)CCN1CCCC(C)C1` (configuration not stated), greater than 50.1 µM; under `CCCc1ccc(C(=O)N[C@@H]2CCOC[C@H]2O)cc1`, greater than 50.1 µM. `COCc1nn(CC(=O)c2cc(F)ccc2F)c(=O)o1` gave an IC50 greater than 50.1 µM. Under `CCc1noc(CC)c1CNC(=O)Nc1ncnn1C` stands greater than 50.1 µM; under `CNC(=O)[C@@H]1CSCN1c1ccc(C(F)(F)F)cn1`, greater than 50.1 µM; under `CCc1cnc(N2CCNCC2)s1`, greater than 50.1 µM.

Turning to `COc1ccc(-c2cncc(N)c2)cc1CO`, the IC50 is greater than 50.1 µM.

With `CS(=O)(=O)Nc1ccccc1CNC(=O)c1ccoc1`, the IC50 is greater than 50.1 µM. In turn, `O=C(NC1CCCSC1)N(CCO)C1CC1` (configuration not stated) showed an IC50 greater than 50.1 µM. Under `CCNc1ccc(C(F)(F)F)cn1` stands greater than 50.1 µM; under `COc1ccccc1N1CCCC(N)C1` (configuration not stated), greater than 50.1 µM; under `COc1ccc(NCC(=O)N2CCNC(=O)C2)c(C)c1`, greater than 50.1 µM. As for `O=C(c1cnsn1)N1CCN(C2CC2)C(=O)C1`, the figure is greater than 50.1 µM; as for `O=C(NCCc1ncc[nH]1)c1cccnc1SC(F)F`, greater than 50.1 µM; as for `Cc1ccc(CN(C)C(=O)Cn2cnnn2)o1`, greater than 50.1 µM.

On to `O=C1CN(CC(=O)Nc2c(Cl)cccc2Cl)CCN1`, for which the IC50 is greater than 50.1 µM.

As to `Cc1ocnc1C(=O)Nc1ccc2c(c1)NCCC2`, the IC50 is greater than 50.1 µM. As for `CCNC(C)(C)C(=O)N(C)Cc1ccc(OC)c(F)c1`, the figure is greater than 50.1 µM; as for `CCN(CC(C)C#N)C(=O)c1ccc(Br)o1` (configuration not stated), greater than 50.1 µM; as for `CN(CCNS(C)(=O)=O)CCSc1ccccc1`, greater than 50.1 µM.

`Cc1cc(C)n(CC2CCNCC2)n1` had an IC50 greater than 50.1 µM. As for `CC(C)COCCC(=O)Nc1nccs1`, the figure is greater than 50.1 µM; as for `OC1(CNCCOCc2ccc(Cl)cc2)CCCNC1` (configuration not stated), greater than 50.1 µM.

Turning to `COC(C)CCC(=O)NCc1cn2ccccc2n1` (configuration not stated), the IC50 is greater than 50.1 µM. As for `CCN1CCCC1CNCC(=O)N(C)C` (configuration not stated), the figure is greater than 50.1 µM; as for `COc1cc(Br)c(CN)cc1OC`, greater than 50.1 µM.

As for `CCOc1ccc(C(=O)N2CCC(N)CC2)cc1`, the IC50 was greater than 50.1 µM. For the compound `CNc1cccnc1N(C)C`, the IC50 is greater than 50.1 µM. Compound `COc1ccccc1NC(=O)CC#N` had an IC50 greater than 50.1 µM. Under `CC(c1cccs1)n1nccc1N` (configuration not stated) stands greater than 50.1 µM; under `Cc1ccc(C(=O)N2CCN(c3nccn3C)CC2)o1`, greater than 50.1 µM; under `CC(=O)N1N=C(c2cccnc2)CC1c1ccco1` (configuration not stated), greater than 50.1 µM. As for `Cc1nc2c(c(NCc3ccc(N)nc3)n1)CCCC2`, the IC50 is greater than 50.1 µM.
